Like-named read-outs stand apart in the source and are kept apart here.

Assay in all cases: Tumor cell proliferation inhibitory activity test in vitro (MTT)
Experiment [1] relates to colon carcinoma cell HCT116. It counts as cell-based, human. The following applies: read-out: IC50 of compounds for tumor cells, Activity, HCT116. An excerpt:
(§1) Human non-small cell lung cancer cell line NCI-H460, human small cell lung cancer cell line NCI-H446, human hepatocellular carcinoma cell strain HepG2, human colon carcinoma cell strain HCT116, human prostate cancer PC-3, human melanoma A375, colon carcinoma cell HCT-8, breast cancer cell MCF-7, ovarian cancer cell A2780s, drug-resistant ovarian cancer cell A2780/T, drug-resistant colon cancer cell HCT-8/T and doxorubicin-resistant breast cancer cell MCF-7/ADR are obtained from American Type Culture Collection (ATCC) and are cultured and preserved by the cell bank of State Key Laboratory of Biotherapy of Sichuan University. Above tumor cells are routinely cultured in DMEM culture medium containing 10% fetal bovine serum, 100 U·mL-1 penicillin and 100 mg·L−1 streptomycin, and in an incubator at 37° C. and with saturated humidity and 5% CO2 concentration.
(§2) Fill diluted cell suspension in the 96-well plate with 1000-10000 cells per well and incubate it in CO2 incubator overnight.
(§3) Replace with new medium containing various concentrations of compounds to be tested for the test group and replace with fresh medium with equal volume for the control group, each group is arranged with 5 parallel wells and incubated in an incubator at 37° C. and with 5% CO2 concentration.
(§4) Discard the supernatant after 72 hours, add 200 μL freshly prepared serum-free medium containing 0.2 mg/mL MTT into each well, continue to incubate at 37° C. for 1-4 hours, then stop incubation, carefully remove the culture supernatant in the wells and add 200 uL DMSO (dimethyl sulfoxide), oscillate with a miniature ultrasonic oscillator for 15-20 minutes to make the crystal fully dissolved and mixed. Determine OD values using a microplate reader at 570 nm with a reference wavelength of 450 nm.
(§5) Draw curves based on the growth inhibition rate for tumor cells of the same sample with different concentrations to get dose-response curve, so as to calculate IC50. Repeat each test for 3 times, measure IC50 (μM) or nanomolor concentration (nM) of compounds in different tumor cells.

Experiment [2] deals with hepatocellular carcinoma cell HEPG2. Format: cell-based, human. The following applies: read-out: IC50 of compounds for tumor cells, Activity, HEPG2.
From the text: as §1, §2, §3, §4, §5

The subject of another experiment is melanoma A375. Format: cell-based, human. As to conditions: read-out: IC50 of compounds for tumor cells, Activity, A375.
From the text: as §1, §2, §3, §4, §5

The test system of experiment [3] is non-small cell lung cancer cell line NCI-H460. Format: cell-based, human. The following applies: read-out: IC50 of compounds for tumor cells, Activity, H460.
From the text: as §1, §2, §3, §4, §5

In the next experiment the test system is prostate cancer PC-3. It counts as cell-based, human. As to conditions: 72 hours, read-out: IC50 of compounds for tumor cells, Activity, PC-3.
From the text: as §1, §2, §3, §4, §5

A further experiment has as its system breast cancer cell MCF-7. Format: cell-based.
From the text: as §1, §2, §3, §4, §5

For experiment [4], the system named is drug-resistant ovarian cancer cell A2780/T. Format: cell-based. As to conditions: Homo sapiens, drug-resistant cells, 72 hours.
From the text: as §1, §2, §3, §4, §5

Experiment [5] deals with ovarian cancer cell A2780s. Format: cell-based. The following applies: Homo sapiens, sensitive cells, 72 hours.
From the text: as §1, §2, §3, §4, §5

Experiment [6] deals with colon carcinoma cell HCT-8. It counts as cell-based. As to conditions: Homo sapiens, sensitive cells, 72 hours.
From the text: as §1, §2, §3, §4, §5

Experiment [7] concerns doxorubicin-resistant breast cancer cell MCF-7/ADR. Format: cell-based. As to conditions: Homo sapiens, NCI/ADR-RES, drug-resistant cells, 72 hours, cells marked (μM), read-out: IC50 MCF-7/ADR.
From the text: as §1, §2, §3, §4, §5

For a further experiment, the system named is HCT-8/V. Format: cell-based. The following applies: Homo sapiens, drug-resistant cells, 72 hours, cells marked (μM), read-out: IC50 HCT-8/V.
[8] abbreviates: Homo sapiens, HCT-116, 72 hours.
Where [9] appears, read: Homo sapiens, NCI-H460, 72 hours.
The mark [10] stands for this setting: Homo sapiens, MCF7, 72 hours, read-out: IC50 of compounds for tumor cells, Activity, MCF-7.
Setting [11] is: 72 hours, read-out: IC50 of compounds for tumor cells, Activity, MCF-7.

On to `COc1ccc(N(C)c2cc(=O)oc3ccccc23)cc1OC(=O)C1CCCC1` [COUM-73, 4-(N-methyl-N-(4-methoxy-3-(cyclopentyl-carbonyloxy)benzene)-amino) Coumarin], for which the IC50 was 1e-05 to 0.01 µM in experiment [1] (setting [8]); 1e-05 to 0.01 µM in experiment [2] (Homo sapiens, HepG2, 72 hours); 1e-05 to 0.01 µM in the experiment with melanoma A375 (Homo sapiens, A-375, 72 hours); 1e-05 to 0.01 µM in experiment [3] (setting [9]); 1e-05 to 0.01 µM in the experiment on prostate cancer PC-3 (Homo sapiens); 0.01 to 10 nM with breast cancer cell MCF-7 (setting [10]). In addition, the IC50 in [4] was found to be 3.34 ± 0.101 nM; in experiment [5], 1.68 ± 0.075 nM.

As for `CC[C@]1(O)C[C@H]2CN(CCc3c([nH]c4ccccc34)[C@@](C(=O)OC)(c3cc4c(cc3OC)N(C=O)[C@H]3[C@@](O)(C(=O)OC)[C@H](OC(C)=O)[C@]5(CC)C=CCN6CC[C@]43[C@@H]65)C2)C1` [Vincristin, vincristin], the IC50 in the experiment on breast cancer cell MCF-7 (Homo sapiens, MCF7, sensitive cells, 72 hours, read-out: IC50/nM MCF-7) was 54.7 nM; in [6], 14.8 ± 3.15 nM; in experiment [7], 5.85 ± 1.39 µM; in experiment [4], 476 ± 76.1 nM; in experiment [5], 22.4 ± 2.68 nM; with HCT-8/V, 0.023 ± 0.004 µM.

For `COc1ccc2c(-c3ccc(-c4ccc(C)cc4)o3)cc(=O)oc2c1` [COUM-24, 4-(5-(4-methylbenzene)furan-2-yl)-7-methoxyl-coumarin], the IC50 was greater than 5 µM in [1] (setting [8]); greater than 5 µM in experiment [2] (Homo sapiens, HepG2, 72 hours); greater than 5 µM in the experiment with melanoma A375 (Homo sapiens, A-375, 72 hours); greater than 5 µM in experiment [3] (setting [9]); greater than 5 µM in the experiment on prostate cancer PC-3 (Homo sapiens); greater than 5000 nM with breast cancer cell MCF-7 (setting [10]).

For `COc1ccc(-c2ccc(-c3cc(=O)oc4ccccc34)o2)cc1` [COUM-15, 4-(5-(4-methoxyphenyl)furan-2-yl)-coumarin], the IC50 in experiment [1] (setting [8]) is greater than 5 µM; in [2] (Homo sapiens, HepG2, 72 hours), greater than 5 µM; in the experiment with melanoma A375 (Homo sapiens, A-375, 72 hours), greater than 5 µM; in experiment [3] (setting [9]), greater than 5 µM; in the experiment with prostate cancer PC-3 (Homo sapiens) it was greater than 5 µM; in the experiment with breast cancer cell MCF-7 (setting [10]), greater than 5000 nM.

In the case of `COc1ccc2c(-c3ccc(-c4ccccc4Cl)s3)cc(=O)oc2c1` [COUM-34, 4-(5-(2-chlorobenzene)thiophene-2-yl)-7-methoxyl-coumarin], the IC50 in experiment [1] (setting [8]) was greater than 5 µM; in experiment [2] (Homo sapiens, HepG2, 72 hours), greater than 5 µM; in the experiment with melanoma A375 (Homo sapiens, A-375, 72 hours) it was greater than 5 µM; in experiment [3] (setting [9]), greater than 5 µM; with prostate cancer PC-3 (Homo sapiens), greater than 5 µM; with breast cancer cell MCF-7 (setting [10]), greater than 5000 nM.

With `CCOC(=O)c1cccc(-c2ccc(-c3cc(=O)oc4ccccc34)s2)c1` [COUM-32], the IC50 in [1] (setting [8]) was greater than 5 µM; in experiment [2] (Homo sapiens, HepG2, 72 hours) it was greater than 5 µM; in the experiment with melanoma A375 (Homo sapiens, A-375, 72 hours) it was greater than 5 µM; in [3] (setting [9]) it was greater than 5 µM; in the experiment on prostate cancer PC-3 (Homo sapiens), greater than 5 µM; in the experiment with breast cancer cell MCF-7 (setting [10]), greater than 5000 nM.

For the molecule `COc1cccc(-c2ccc(-c3cc(=O)oc4cc(OC)ccc34)s2)c1` [COUM-33, 4-(5-(3-methoxybenzene)thiophene-2-yl)-7-methoxyl-coumarin], the IC50 in experiment [1] (setting [8]) is greater than 5 µM; in experiment [2] (Homo sapiens, HepG2, 72 hours), greater than 5 µM; in the experiment on melanoma A375 (Homo sapiens, A-375, 72 hours), greater than 5 µM; in experiment [3] (setting [9]), greater than 5 µM; in the experiment on prostate cancer PC-3 (Homo sapiens), greater than 5 µM; in the experiment with breast cancer cell MCF-7 (setting [10]) it was greater than 5000 nM.

Regarding `COc1ccc2c(c1)CN(c1cc(=O)oc3ccccc13)CCC2` [COUM-37, 4-(8-methoxy-1,3,4,5-tetrahydro-2H-benzoazepine-2-yl) Coumarin], the IC50 lay in the range of 0.1 to 5 µM in experiment [1] (setting [8]); 0.1 to 5 µM in experiment [2] (Homo sapiens, HepG2, 72 hours); 0.1 to 5 µM in the experiment with melanoma A375 (Homo sapiens, A-375, 72 hours); 0.1 to 5 µM in experiment [3] (setting [9]); 0.1 to 5 µM in the experiment with prostate cancer PC-3 (Homo sapiens); 100 to 5000 nM with breast cancer cell MCF-7 (setting [10]).

In the case of `COc1ccc(N(C)c2cc(=O)oc3ccccc23)cc1OCCN1CCOCC1` [COUM-49, 4-(N-methyl-N-(4-methoxy-3-(2-morpholinoethoxy)-benzene)-amino) Coumarin], the IC50 in [1] (72 hours) lay in the range of 0.1 to 5 µM; in [2] (72 hours) it was 0.1 to 5 µM; with melanoma A375 (72 hours) it was 0.1 to 5 µM; in experiment [3] (72 hours), 0.1 to 5 µM; in the experiment with prostate cancer PC-3, 0.1 to 5 µM; with breast cancer cell MCF-7 (setting [11]), 100 to 5000 nM.

As to `COc1ccc2c(c1)CN(c1cc(=O)oc3cc(OC)ccc13)CCC2` [COUM-39, 4-(8-methoxy-1,3,4,5-tetrahydro-2H-benzoazepine-2-yl)-7-methoxycoumarin], the IC50 in [1] (setting [8]) lay within 0.1 to 5 µM; in experiment [2] (Homo sapiens, HepG2, 72 hours) it was 0.1 to 5 µM; in the experiment with melanoma A375 (Homo sapiens, A-375, 72 hours), 0.1 to 5 µM; in experiment [3] (setting [9]), 0.1 to 5 µM; with prostate cancer PC-3 (Homo sapiens), 0.1 to 5 µM; with breast cancer cell MCF-7 (setting [10]), 100 to 5000 nM.

Take `O=c1cc(-c2ccc(-c3ccc(Cl)cc3)o2)c2ccccc2o1` [COUM-21, 4-(5-(4-chlorobenzene)furan-2-yl)-coumarin]: the IC50 was greater than 5 µM in [1] (setting [8]); greater than 5 µM in experiment [2] (Homo sapiens, HepG2, 72 hours); greater than 5 µM in the experiment on melanoma A375 (Homo sapiens, A-375, 72 hours); greater than 5 µM in experiment [3] (setting [9]); greater than 5 µM in the experiment with prostate cancer PC-3 (Homo sapiens); greater than 5000 nM with breast cancer cell MCF-7 (setting [10]).

In the case of “4-(N-methyl-N-(4-methoxy-3-(3-chlorophenyl-methoxycarbonyl)-benzene)-amino) Coumarin [COUM-62]”, the IC50 lay within 0.1 to 5 µM in [1] (72 hours); 0.1 to 5 µM in experiment [2] (72 hours); 0.1 to 5 µM in the experiment on melanoma A375 (72 hours); 0.1 to 5 µM in [3] (72 hours); 0.1 to 5 µM in the experiment with prostate cancer PC-3; 100 to 5000 nM in the experiment on breast cancer cell MCF-7 (setting [11]).

Consider `COc1ccc2c(-c3ccc(-c4ccc5c(c4)OCO5)s3)cc(=O)oc2c1` [COUM-11, 4-(5-(3,4-(methylenedioxy)benzene)thiophene-2-yl)-7-methoxyl-coumarin], for which the IC50 in experiment [1] (setting [8]) is greater than 5 µM; in experiment [2] (Homo sapiens, HepG2, 72 hours), greater than 5 µM; with melanoma A375 (Homo sapiens, A-375, 72 hours), greater than 5 µM; in [3] (setting [9]), greater than 5 µM; in the experiment with prostate cancer PC-3 (Homo sapiens), greater than 5 µM; with breast cancer cell MCF-7 (setting [10]) it was greater than 5000 nM.

Consider `CCOC(=O)c1cccc(-c2ccc(-c3cc(=O)oc4cc(OC)ccc34)s2)c1` [COUM-13, 4-(5-(3-ethoxycarbonylbenzene)thiophene-2-yl)-7-methoxyl-coumarin], for which the IC50 in [1] (setting [8]) was greater than 5 µM; in experiment [2] (Homo sapiens, HepG2, 72 hours), greater than 5 µM; with melanoma A375 (Homo sapiens, A-375, 72 hours), greater than 5 µM; in experiment [3] (setting [9]), greater than 5 µM; in the experiment on prostate cancer PC-3 (Homo sapiens), greater than 5 µM; in the experiment with breast cancer cell MCF-7 (setting [10]) it was greater than 5000 nM.

Values taken from patent publication US10544134B2, “4-substituted coumarin derivatives and preparation methods and uses thereof” (SI CHUAN UNIVERSITY, priority 2015, dated 2020).
